Test results from article PMC12679539, “Synthesis and evaluation of nitroheterocyclic aromatic adamantane amides with trypanocidal activity. Part II” (RSC Medicinal Chemistry, 2025).

Tests used:
[1] = system: bloodstream-form Trypanosoma brucei; experiment: Activity against bloodstream-form Trypanosoma brucei (Alamar Blue growth inhibition); format: cell-based, Trypanosoma brucei (strain 427); settings: for IC50 / IC90: Trypanosoma brucei, bloodstream form; for IC50: concentration that inhibits growth by 50%, read-out: T. brucei IC50; for IC90: concentration that inhibits growth by 90%, read-out: T. brucei IC90; for S.I. (selectivity index): ratio of IC50 values obtained with L6 cells and T. brucei
Protocol: (§1) Bloodstream form T. brucei (strain 427) were cultured at 37 °C in modified Iscove's medium. Trypanocidal activity was assessed by growing parasites in microtiter plates in the presence of various drug concentrations. […] The plates were incubated for 48 hours at 37 °C and 20 μL Alamar Blue was then added to each well. After an additional overnight incubation, the fluorescence was determined using a Gemini fluorescent plate reader (Molecular Devices). Inhibition of growth was calculated by comparison with control values and IC50 and IC90 values were determined in triplicate using linear regression analysis.

L6 cells = experiment: Cytotoxic activity against rat skeletal myoblast L6 cells (Alamar Blue); format: cell-based; settings: 120 h, cytotoxicity, 5 days
Protocol: The cytotoxicity against mammalian cells was assessed using microtitre plates. Briefly, L6 cells (a rat skeletal muscle line) were seeded at 1 × 10^4 mL^−1 in 200 μL of RPMI-1640 growth medium (with 10% fetal calf serum) containing 7 different compound concentrations in a range previously established to encompass both the IC50 and IC90 values. The plates were incubated for 5 days at 37 °C and 20 μL Alamar Blue (Biosource Ltd, Wilton, North Yorkshire England.) was then added to each well. After an additional 8 hours incubation, the fluorescence was determined using a Gemini fluorescent plate reader (Molecular Devices). Inhibition of growth was calculated by comparison with control values and IC50 and IC90 values were determined in triplicate using linear regression analysis.

T. cruzi epimastigotes = experiment: Activity against Trypanosoma cruzi epimastigotes (Alamar Blue growth inhibition); format: cell-based, Trypanosoma cruzi (strain CL Brener); settings: CL Brener
Protocol: as §1, with “Trypanocidal” for “Bloodstream form T. brucei (strain 427) were cultured at 37 °C in modified Iscove's medium. Trypanocidal”, “4 days” for “48 hours”, “28” for “37”, “Blue (Biosource UK Ltd)” for “Blue”, “3 days” for “overnight”

[2] = system: T. cruzi intracellular amastigotes; experiment: microbe, parasite or virus in culture; format: cell-based, Trypanosoma cruzi CL Brener PpyRE9h:mScarlet; settings: Trypanosoma cruzi, 120 h; in HeLa cells, 5 days
Protocol: Assays were performed in 96-well black (clear bottom) microtitre plates (Corning Inc.). HeLa ^† cells were seeded at 10^4 per well, incubated for 3 days, and then infected with T. cruzi CL Brener PpyRE9h : mScarlet[25] culture form trypomastigotes (1 : 1 multiplicity of infection). After 16 hours, extracellular parasites were removed by washing in growth medium (×3), test compounds were added, and the plates incubated for 5 days. Fluorescence intensities were then determined using a BMG FLUOstar Omega plate reader (ex 545 nm, em 590 nm), and the data analysed using GraphPad Prism 9.0 software. The values were expressed as IC50/90 ± SD and are the mean of triplicate experiments.

[3] = system: L. infantum promastigotes; experiment: Activity against Leishmania infantum promastigotes (resazurin assay); format: cell-based, Leishmania infantum (MHOM/MA/67/ITMAP-263); settings: for IC50: Leishmania infantum, promastigotes, 72 h, 95% CI in brackets
Protocol: Promastigotes from the L. infantum strain (MHOM/MA/67/ITMAP-263) were cultivated in 5 ml of Schneider's insect medium, which was supplemented with 10% heat-inactivated fetal bovine serum (FBS), 200 U ml^−1 of penicillin/streptomycin, 6 μg ml^−1 of phenol red, and 5 mM of HEPES. The cultures were maintained in an incubator at 27 °C and diluted to a concentration of 2 × 10^5 cells per ml every 5 days. For the assays the parasites used were equivalent to late/log with two or three days of culture.
The efficacy of the compounds against L. infantum promastigotes was evaluated using a resazurin-based assay. Parasites were added to 100 μl of serial dilutions of the compounds in supplemented complete medium at a cell density of 5 × 10^5 ml^−1. As a quality control, a dose–response curve with the antileishmanial drug miltefosine was included in all assays. The final volume of each assay was 200 μl per well, and each condition was tested in duplicate. After a 72-hour incubation under specific conditions for each parasite, 20 μl of a 0.5 mM resazurin solution was added, and the plates were incubated for an additional 4 hours under the same conditions. Fluorescence was measured at 544 nm for excitation and 590 nm for emission using a Synergy 2 Multi-Mode Reader (Biotek, Winooski, VT, USA). Results were expressed as the percentage of parasite growth inhibition compared to controls (untreated parasites) and represent the average of at least three independent experiments. The effect was evaluated by determining the IC50 value (the concentration required to inhibit 50% growth), calculated using non-linear regression curves via GraphPad Prism version 8.1.1 for Windows (GraphPad Software, San Diego, CA, USA).

[4] = system: L. infantum intracellular amastigotes; experiment: Activity against intracellular L. infantum amastigotes in THP-1 derived macrophages (luciferase); format: cell-based, Leishmania infantum (MHOM/MA/67/ITMAP-263); settings: Leishmania infantum; for inhibition at 10 µM: THP-1, 72 h, read-out: L. infantum (intracellular amastigotes) % of growth inhibition at 10 μM ± ST DEV
Protocol: Leishmania infantum Luciferase-expressing L. infantum (strain MHOM/MA/67/ITMAP-263) axenic amastigotes were cultured in MAA/20 medium at 37 °C with 5% CO2, as described by Sereno et al. 1998.[26] The parasites were maintained in 5 mL T25 ventilated flasks and subcultured every seven days at a concentration of 1 × 10^6 cells per mL.
The activity against intracellular amastigotes of L. infantum was evaluated using a modified method described by Santarem, Tavares, and Cordeiro-da-Silva (2019).[27] THP-1 cells were differentiated into macrophages using PMA, as previously outlined. The differentiated macrophages were then infected with L. infantum axenic amastigotes expressing episomal luciferase at a macrophage-to-amastigote ratio of 1 : 10 for four hours at 37 °C in a 5% CO2 atmosphere. After this incubation, non-internalized parasites were washed away, and various concentrations of test compounds were added in a final volume of 100 μL. A dose–response curve for miltefosine was included in all assays to serve as a quality control. Each experimental condition was tested in quadruplicate. After 72 hours of incubation, the medium was replaced with 100 μL of PBS, and 25 μL of Glo-lysis buffer from the Steady-Glo Luciferase Assay System (Promega, Madison, WI, USA) was added. The plates were then agitated at 100 rpm for 10 minutes at room temperature. Following this, 30 μL of the Steady-Glo reagent (Promega, Madison, WI, USA) was added, and the mixture was incubated for 15 minutes in the dark under the same conditions. A total of 140 μL from each well was transferred to white-bottom 96-well plates, and luminescence intensity was measured using a Synergy 2 Multi-Mode Reader (Biotek, Winooski, VT, USA). The antileishmanial effect was assessed by comparing the results with those from non-treated infected cells. The IC50 value were determined through non-linear regression analysis using GraphPad Prism version 8.1.1 for Windows (GraphPad Software, San Diego, CA, USA). Results represent the average of at least three independent experiments.

Row | Structure (SMILES) | IC50 [1] [nM] | IC90 [1] [nM] | S.I. (selectivity index) [1] | IC50 (L6 cells) [nM] | IC50 (T. cruzi epimastigotes) [nM] | IC90 (T. cruzi epimastigotes) [nM] | IC50 [2] [nM] | IC90 [2] [nM] | IC50 [3] [µM] | inhibition at 10 µM [4] [%] | SI (promastigotes) CC50/Li IC50 ([3]; THP-1 CC50 / L. infantum promastigote IC50) | IC50 ([4]; THP-1 derived macrophages, 72 h, 95% CI in brackets, read-out: L. infantum (intracellular amastigotes) IC50 (μM), 95% CI) [µM]
1 | O=C(Cc1ccc(C23CC4CC(CC(C4)C2)C3)cc1)NCCn1cnc([N+](=O)[O-])n1 [6b, 2-[4-(1-Adamantyl)phenyl]-N-[2-(3-nitro-1H-1,2,4-triazol-1-yl)ethyl]acetamide] | 420 ± 70 | 1800 ± 200 | 72 | 30000 ± 2000 | 200 ± 30 | 660 ± 40 | 1830 ± 700 | 4290 ± 310 | 0.49 | 50.1 ± 23 |  | 
2 | O=C(CCc1ccc(C23CC4CC(CC(C4)C2)C3)cc1)NCCn1cnc([N+](=O)[O-])n1 [6c, 3-[4-(1-Adamantyl)phenyl]-N-[2-(3-nitro-1H-1,2,4-triazol-1-yl)ethyl]propanamide] | 200 ± 20 | 320 ± 10 | 114 | 23000 ± 2000 | 450 ± 20 | 1200 ± 20 | 1580 ± 70 | 3230 ± 850 | 0.42 | 47.6 ± 16.3 | SI > 238 | 
3 | O=C(Cc1ccc(C23CC4CC(CC(C4)C2)C3)cc1)NCCCn1cnc([N+](=O)[O-])n1 [6e, 2-[4-(1-Adamantyl)phenyl]-N-[3-(3-nitro-1H-1,2,4-triazol-1-yl)propyl]acetamide] | 240 ± 10 | 400 ± 10 | 96 | 23000 ± 3000 | 140 ± 10 | 270 ± 20 | 2480 ± 310 | 7080 ± 470 | 0.31 | 59.5 ± 12 |  | 6.93
